Assay results as given in the supplement of paper PMC10307832.

Experiments:
Experiment in all cases: relative viability (nuclei count vs DMSO), 5 days (fraction); higher = more cells survive
[1] = compound: CCNC(=O)c1noc(-c2cc(C(C)C)c(O)cc2O)c1-c1ccc(CN2CCOCC2)cc1 [Luminespib]
Method in brief: (§1)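 Lung cancer cell lines received five library-drug doses (not always all listed) spaced by √10, pinned on vehicle-anchored 1536-well plates after an overnight stay at 37 °C. Five days later, with no medium change, nuclei were Hoechst-stained, imaged at 4× and counted with MetaXpress. Viability is treated-well nuclei relative to vehicle-well nuclei, as a median across plates. Passing plates had control CV below 25% and at least one doubling.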

[2] = compound: Cc1cn(-c2cc(NC(=O)c3ccc(C)c(Nc4nccc(-c5cccnc5)n4)c3)cc(C(F)(F)F)c2)cn1 [Nilotinib]
Method in brief: as §1

[3] = compound: CN1CCN(CCOc2cc(OC3CCOCC3)c3c(Nc4c(Cl)ccc5c4OCO5)ncnc3c2)CC1 [Saracatinib]
Method in brief: as §1

[4] = compound: CC1=CSC(=NC2CCCCC2)N1/N=C/C3=C(C(=C(C=C3)O)O)O [MIM1]
Method in brief: as §1

[5] = compound: Nc1cccc2c1CN(C1CCC(=O)NC1=O)C2=O [Lenalidomide]
Method in brief: as §1

| Cell Line | relative viability ([1]; 0.002 µM) | relative viability ([1]; 0.006325 µM) | relative viability ([1]; 0.01 µM, anchor plate) | relative viability ([1]; 0.02 µM) | relative viability ([1]; 0.06325 µM) | relative viability ([1]; 0.2 µM) | relative viability ([2]; 0.001 µM) | relative viability ([2]; 0.003162 µM) | relative viability ([2]; 0.01 µM) | relative viability ([2]; 0.03162 µM) | relative viability ([2]; 0.1 µM) | relative viability ([3]; 0.02 µM) | relative viability ([3]; 0.2 µM) | relative viability ([3]; 0.6325 µM) | relative viability ([3]; 2 µM) | relative viability ([4]; 0.2 µM) | relative viability ([4]; 0.6325 µM) | relative viability ([4]; 2 µM) | relative viability ([4]; 6.325 µM) | relative viability ([4]; 20 µM) | relative viability ([5]; 0.253 µM) | relative viability ([5]; 0.8 µM) | relative viability ([5]; 2.53 µM) | relative viability ([5]; 8 µM) |
| --- | --- | --- | --- | --- | --- | --- | --- | --- | --- | --- | --- | --- | --- | --- | --- | --- | --- | --- | --- | --- | --- | --- | --- | --- |
| HOP-62 | 1.05 | 0.969 | 0.912 | 1.01 | 0.659 | 0.249 | 0.953 | 0.958 | 0.948 | 0.698 | 0.462 | 1.02 | 0.968 | 1.19 | 1.14 | 1.02 | 0.942 | 0.782 | 0.74 | 0.204 | 0.943 | 0.963 | 1.05 | 0.93 |
| IA-LM | 1.06 | 0.884 |  | 0.678 | 0.0695 | 0.0432 | 0.835 | 0.793 | 1.07 | 0.789 | 0.909 | 0.983 | 0.848 | 1.46 | 1 | 0.976 | 0.935 | 0.896 | 0.345 | 0.157 | 0.985 | 0.859 | 1.05 | 0.942 |
| LC-2-ad | 0.95 | 0.936 | 1.03 | 0.915 | 0.561 | 0.207 | 0.95 | 1.15 | 1.15 | 0.912 | 0.479 | 1.05 | 0.978 | 1.15 | 0.944 | 0.991 | 0.699 | 0.944 | 0.428 | 0.231 | 1.04 | 0.862 | 1.08 | 1.02 |
| LCLC-97TM1 | 0.878 | 0.814 | 0.77 | 0.466 | 0.528 | 0.0858 |  | 0.984 | 1.06 | 0.834 | 0.368 | 0.986 | 0.712 | 1.19 | 0.974 | 1.02 | 0.767 | 0.703 | 0.456 | 0.144 | 0.943 | 0.932 | 1.05 | 0.616 |
| LCLC-103H | 0.982 | 1.01 | 0.954 | 0.941 | 1.02 | 0.83 | 1.01 | 1.08 | 1.12 | 0.975 | 0.804 | 0.944 | 0.884 | 1.02 | 0.963 | 1.02 | 0.976 | 0.973 | 0.742 | 0.53 | 0.97 | 1 | 0.988 | 0.783 |
| LK-2 | 1.03 | 1.02 | 0.204 | 0.556 | 0.258 | 0.154 | 0.89 | 0.903 | 1.08 | 0.729 | 0.875 | 0.925 | 0.823 | 0.788 | 0.484 | 1.01 | 1.04 | 0.858 | 0.957 | 0.262 | 0.985 | 0.956 | 1.14 | 0.906 |
| LOU-NH91 | 0.995 | 0.922 | 0.364 | 0.717 | 0.334 | 0.376 | 0.961 | 0.944 | 0.973 | 0.981 | 0.967 | 0.945 | 0.741 | 0.834 | 0.66 | 0.863 | 0.903 | 0.809 | 0.758 | 0.394 | 1 | 0.873 | 0.95 | 0.905 |
